The nature of data set [1]: aqueous solubility of cilostazol polymorphic forms. The data set is classed as physicochemical.
A short description of data set [2]: bioavailability of cilostazol Form A. The data set is classed as in vivo. Particulars: Form A as prepared by the procedures of the '479 patent.
Data set [3] can be described thus: stability of the polymorphic form. Particulars: statement in summary, no conditions given. It is filed as physicochemical.

As to `O=C1CCc2cc(OCCCCc3nnnn3C3CCCCC3)ccc2N1` [Form A, 6-[4-(1-cyclohexyl-1H-tetrazol-5-yl)butoxy]-3,4-dihydro-2(1H)-quinolinone], the aqueous solubility result in data set [1] (Form A as prepared by the procedures of the '479 patent) is recorded as “low aqueous solubility”. The bioavailability result in data set [2] is on record as “low bioavailability”.
As for `O=C1CCc2cc(OCCCCc3nnnn3C3CCCCC3)ccc2N1` [Form B, 6-[4-(1-cyclohexyl-1H-tetrazol-5-yl)butoxy]-3,4-dihydro-2(1H)-quinolinone], the “solubility relative to Form A” value in data set [1] (inferred from lower DSC melting point (FIG. 8), no solubility measurement) is recorded as “more soluble than Form A”. The “stability of the form” value in data set [3] is reported as “stable”.
